Earlier results in patent US20250073219A1, “NEW COMPOSITION COMPRISING IMMUNOMODULATORY DRUG” (NANEXA AB, priority 2021, published 2025).

Conditions: oral, about 25 mg once daily, plasma; cited from earlier work

## Nc1cccc2c1CN(C1CCC(=O)NC1=O)C2=O (stereo not drawn) [lenalidomide, 3-(4-amino-1-3-dihydro-l-ovo-2H-isoindol-2yl)-2,6-piperidinedione]
  Cmax obtained from a dosing regimen comprising orally administering an about 25 mg dose once daily: about 568 ng/ml
